In patent US8980249B2, “Agonists of growth hormone releasing hormone as effectors for survival and proliferation of pancreatic islets” (University of Miami, priority 2010, dated 2015):
Values joined by “and” are separate entries in the source; they are usually repeats but may differ in a detail not shown here. Identical values can stand only once. “Also recorded” adds a separate entry of the source. Square brackets hold non-standard residues; d marks the D form. Ends that are not written are not given here. * marks the point of attachment. Agmatine = N=C(N)NCCCCN*; Nle = CCCC[C@H](N)C(=O)O; Orn = NCCC[C@H](N)C(=O)O; Abu = CC[C@H](N)C(=O)O

Key:
[1] = test system: myocardial infarction (MI); conditions: in vivo; cited from earlier work
[2] = test system: INS-1 cells; test: Cell proliferation of INS-1 insulinoma cells; type: cell-based, rat
Procedure: (§1) Rat insulinoma cells (INS-1) were cultured in RPMI 1640 medium (PAA, Pasching, Austria) supplemented with 2 mM L-glutamine, 10% fetal bovine serum (FBS), 1 mM Na-pyruvate, 50 μM 2-mercaptoethanol and 100 U/ml penicillin-streptomycin (Gibco, Gaithersburg Md.) in a humidified 5% CO2/[…] atmosphere at 37° C. The culture medium was changed every other day. Cells were grown for 72 hrs prior to experimentation. GHRH agonist JI-36 (10^−6-10^−9 M) and GHRH antagonist MIA-602 ([…]) were used for 24-96 hrs, respectively.
(§2) INS-1 cells were grown for 72 hrs prior to experimentation; islets were collected immediately after the isolation procedure and each were divided into three treatment groups: (1) Culture media with vehicle (DMSO) served as control group, (2) Culture media containing GHRH agonist JI-36 (10^−6 M), (3) culture media with JI-36 plus GHRH antagonist MIA-602 (10^−6 M). Media change and addition of the analogues was performed after 24 hrs and 48 hrs in islet cultures and every other day in INS-1 cell cultures.

[3] = test system: INS-1 cells; test: Cell apoptosis of INS-1 cells (activity of caspases 3 and 7); type: cell-based, rat
Procedure: as §1, §2

[4] = test system: INS-1 cells; test: Ultrastructural analysis of INS-1 cells; type: cell-based, rat; conditions: JI-36 10^−6 M
Procedure: as §2

[5] = test system: isolated rat islets; test: Islet particle number and islet size (islet equivalents) in culture; type: cell-based; conditions: rat islets in culture with JI-36 10^−6 M
Procedure: Pancreatic islets were isolated from male Wistar rats according to guidelines established by the University of Dresden Institutional Animal Care and Use Committee. Animals were anesthetized by 3% isoflurane; digestion solution (Collagenase V, Sigma-Aldrich, St. Louis, Mo.) was injected in situ via the pancreatic common bile duct. Islets were purified by centrifugation on a discontinuous Ficoll gradient (Mediatech). Purified islets were maintained in culture media (CMRL 1066, Mediatech, USA) supplemented with 10% FBS at 37° C. in a 5% CO2 incubator. Volume and purity were determined by microscopic sizing after staining with dithizone (Sigma-Aldrich, St. Louis, Mo.).
Triplicate samples of 100 to 300 islet particles were stained with dithizone (Sigma-Aldrich, St. Louis, Mo.), which binds zinc ions present specifically in islet β-cells, and sized using an eyepiece reticle and inverted microscope (32). The term islet particle describes an individual islet independent of its size. All islet particles with a diameter >50 μm were divided into classes of 50 μm increments (i.e., 50-100, 100-150, 150-200, etc.) for calculation of islet equivalents (IEQ). Each diameter class was converted into the mean volume of 150-μm diameter islets by a relative conversion factor. These factors allow converting the total islet particle number from any preparation into IEQ. […]

[6] = test system: isolated rat islets; test: Immunostaining of islets for insulin and Ki-67; type: cell-based; conditions: 72 hrs in culture with JI-36
[7] = test system: rat islets; test: Islet membrane integrity, FDA/PI viability staining; type: cell-based; conditions: 72 hrs in culture, n=4
Procedure: Small aliquots of islets were transferred in phosphate-buffered saline (PBS) containing Petri dishes. Fluorescein diacetate (FDA) and propidium iodide (PI) were added to the samples at a final concentration of 0.5 and 75 μM, respectively. Using a fluorescence microscope, 100 islets were assessed for cell viability by estimating the percentage of viable cells (green) versus percentage of non-viable cells (red) within each islet. The percentage of viable cells was then calculated (33).

[8] = test system: rat islets; test: Static glucose-stimulated insulin secretion; type: cell-based
Procedure: For static insulin secretion in response to glucose challenge, islets were transferred into Petri dishes containing oxygenated Krebs-Ringer bicarbonate buffer (KRB, 137 mM NaCl, 4.7 mM KCl, 1.2 mM KH2PO4, 1.2 mM MgSO4-7H2O, 2.5 mM CaCl2-2H2O, 25 mM NaHCO3, 0.25% BSA) and pre-incubated in 3.3 mM glucose at 37° C. (5% CO2) for 30 min. Groups of 8-10 islets from the equilibration cultures were transferred to fresh oxygen-saturated media containing either 3.3 or 16.7 mM glucose and then incubated an additional 60 min in a 37° C. water bath with gentle shaking. Secreted insulin in the media was measured by ELISA (Millipore, Billerica, Mass.) and values normalized to extracted islet DNA (Quant-iT™ Picogreen, Invitrogen).

[9] = test system: streptozotocin-induced diabetic NOD-SCID mice; test: Transplantation of pretreated rat islets beneath the kidney capsule of diabetic mice; type: in vivo
Procedure: NOD-SCID mice (MTZ breed) with induced diabetes were used as islet recipients following guidelines established by the University of Dresden Institutional Animal Care and Use Committee. Diabetes was induced by a single intraperitoneal injection of 180 mg/kg streptozotocin (Sigma-Aldrich, St. Louis, Mo.). Serum glucose was then measured daily using an Ascensia Elite glucometer (Bayer, Burr Ridge, Ill.). Mice were considered diabetic if non-fasting blood glucose (BG) was >350 mg/dL for two or more consecutive days. Rat islet preparations were used for transplantation. Islets from each preparation were divided into two groups, and JI-36 (10^−6 M) or vehicle (DMSO) was added to the culture media. Islets were cultured for 48 hrs prior to transplantation. After culture, samples of 300 IEQ were washed in transplant media (Ringer acetate with 5% glucose and 10% FBS), and transplanted to beneath the left kidney capsule. The animal experiments and housing were in accordance with institutional guidelines and German animal regulations.
The non-fasting blood glucose levels were measured daily during the first week and twice a week thereafter. On day 25, mice were subjected to an intraperitoneal glucose tolerance test (IPGTT). Two days later, grafts were removed. This led to a recurrence of the diabetic state. This proves that restoration and maintenance of normoglycemia was due to islet graft function.
On follow-up, sustained non-fasting blood glucose levels of ≦10 mM (≦180 mg/dl) were defined as “cure”, 10 to 18 mM (180 to 320 mg/dl) as “partial function” of transplanted islets, and levels above 18 mM (>320 mg/dl) as “graft failure”.

[10] = test system: streptozotocin-induced diabetic NOD-SCID mice; test: Intraperitoneal glucose tolerance test after islet transplantation; type: in vivo
Procedure: Mice were fasted overnight (at least 6 hrs) before examination. A glucose solution was given at 3 g/kg BW i.p. and blood glucose was recorded before injection and 15, 30, 45, 60, 90 and 120 min following glucose injection. Non-transplanted mice were used as controls and tested concurrently.

[11] = test system: cardiomyocytes; conditions: in vitro; cited from earlier work
[12] = test system: rat hearts; conditions: cited from earlier work

Substance: (Dat^1, Gln^8, Orn^12,21, Abu^15, Nle^27, Asp^28, Agm^29)hGH-RH(1-29) [JI-38]
- cardiac effect following myocardial infarction [1]: favorable cardiac effect, attenuating infarct size

Substance: (Dat^1, Thr^8, Orn^12,21, Abu^15, Nle^27, Asp^28, Agm^29)hGH-RH(1-29) ([Dat]ADAIFTTSYR[Orn]VL[Abu]QLSAR[Orn]LLQDI[Nle]D[Agmatine]) [JI-36, synthetic GHRH agonist]
- cell proliferation rates (in words) ([2]; 10^−6-10^−9 M, 24-96 hrs): significant and dose-dependent increase
- increase in cell proliferation compared to control ([2]; JI-36 10^−6 M, 72 hrs): 50%
- most effective concentration for cell proliferation ([2]; tested 10^−6-10^−9 M): 10^−6 M
- degree of cell apoptosis (in words) ([3]; 10^−6-10^−9 M, 24-96 hrs, INS-1 cells): significant decrease; also recorded: reduction
- reduction of apoptosis (activity of caspases 3 and 7) ([3]; JI-36 10^−6 M, 72 hrs, INS-1 cells): 20%
- time of maximal anti-apoptotic effect ([3]; incubation 24-96 hrs): 72 h
- most effective concentration for anti-apoptotic effect ([3]; tested 10^−6-10^−9 M, INS-1 cells): 10^−6 M
- ultrastructural changes / metabolic state [4]: more active metabolic state; also recorded: metabolic active stimulation state with increased cytoplasm
- islet equivalents (IEQ/IP ratio, islet size) versus control ([5]; 24-72 hrs): increased islet size
- number of islet particles over time versus control ([5]; up to 72 hrs): no relevant change; also recorded: no difference between treatment group and control
- insulin and Ki-67 staining (proliferation in beta cells) [6]: co-localization of the two markers
- islet viability [7]: 96±3.3%
- insulin release at basal glucose versus control (in words) ([8]; 3.3 mM glucose): slight increase; also recorded: did not cause a relevant difference
- insulin release at basal glucose ([8]; 3.3 mM glucose, 1 hr, after 48 hrs exposure, n=5): 2.3 ± 0.5 ng/mL
- insulin release upon glucose stimulation compared to control (in words) ([8]; 16.7 mM glucose): more than double; also recorded: increased
- insulin release at high glucose ([8]; 16.7 mM glucose, after 48 hrs exposure, n=5): 8.2 ± 0.2 ng/mL
- insulin release at high glucose relative to basal glucose ([8]; 16.7 mM vs 3.3 mM glucose): 3.6 fold
- animals cured (stable normoglycemia) ([9]; 300 IEQ islets pretreated with JI-36 10^−6 M 48 hrs, day 25): 5 of 6 and 5 out of 6
- graft integration (insulin immunostaining) ([9]; day 27 after transplantation): stable graft integration
- blood glucose control after transplantation versus untreated islets (in words) ([9]; islets pretreated with JI-36): consistently performed better; also recorded: rapid and persistent recovery from diabetes; also recorded: earlier and more consistently
- animals with partial graft function ([9]; islets pretreated with JI-36, day 25): one
- time to revert initial hyperglycemia to normal ranges in IPGTT ([10]; day 25): ≤ 2 h
- response in IPGTT ([10]; day 25, glucose 3 g/kg i.p.): comparable to that of normal healthy mice

Substance: rat GHRH: rat growth hormone-releasing hormone, cited cardioprotection study (HADAIFTSSYRRILGQLYARKLLHEIMNRQQGERNQEQRSRFN; Somatoliberin; UniProt P09916 31-73, looked up)
- survival of cardiomyocytes [11]: promoted survival
- protection from ischemia-reperfusion injury [12]: protected
